IC50 data for twelve molecules are collected here from patent publication US20260183275A1, “SUBSTITUTED QUINOLONE COMPOUNDS USEFUL AS INHIBITORS OF TLR9” (Bristol-Myers Squibb Company, priority 2022, published 2026).

What all share (assay type): cell-based
One test deals with T1, human TLR7 (Homo sapiens, UniProt Q9NYK1).
T1 construct: host or cells: HEK-Blue cells
T1 sequence (Q9NYK1 27-1049): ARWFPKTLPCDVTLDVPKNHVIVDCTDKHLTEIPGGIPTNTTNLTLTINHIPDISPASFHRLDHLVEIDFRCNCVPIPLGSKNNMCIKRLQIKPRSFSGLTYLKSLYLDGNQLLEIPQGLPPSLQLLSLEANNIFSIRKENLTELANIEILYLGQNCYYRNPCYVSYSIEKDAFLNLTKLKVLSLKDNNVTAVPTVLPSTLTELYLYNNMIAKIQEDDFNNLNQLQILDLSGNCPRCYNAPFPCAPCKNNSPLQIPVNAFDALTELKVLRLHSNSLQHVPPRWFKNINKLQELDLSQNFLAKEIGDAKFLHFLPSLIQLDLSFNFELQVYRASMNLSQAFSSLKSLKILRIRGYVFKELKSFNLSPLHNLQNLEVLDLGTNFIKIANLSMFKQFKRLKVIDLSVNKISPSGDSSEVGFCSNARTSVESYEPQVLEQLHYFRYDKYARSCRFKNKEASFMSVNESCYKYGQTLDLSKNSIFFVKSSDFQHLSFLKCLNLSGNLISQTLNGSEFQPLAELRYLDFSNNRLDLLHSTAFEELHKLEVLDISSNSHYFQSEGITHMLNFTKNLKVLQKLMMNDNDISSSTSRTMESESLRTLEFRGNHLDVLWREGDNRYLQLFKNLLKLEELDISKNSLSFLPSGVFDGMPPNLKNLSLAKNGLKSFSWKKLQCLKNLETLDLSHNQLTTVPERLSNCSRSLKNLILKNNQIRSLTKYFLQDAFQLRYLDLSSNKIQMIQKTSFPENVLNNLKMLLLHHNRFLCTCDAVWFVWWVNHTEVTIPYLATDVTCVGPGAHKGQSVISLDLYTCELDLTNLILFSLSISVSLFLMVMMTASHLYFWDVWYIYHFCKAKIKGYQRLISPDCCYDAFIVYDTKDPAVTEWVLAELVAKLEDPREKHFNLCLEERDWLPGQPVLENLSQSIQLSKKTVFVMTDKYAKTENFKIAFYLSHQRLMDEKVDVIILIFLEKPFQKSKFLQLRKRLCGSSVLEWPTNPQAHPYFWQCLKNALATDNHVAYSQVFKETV
The test is described as follows: TLR7 inhibition reporter assay (HEK-Blue cells, SEAP reporter). To be noted: HEK-Blue cells overexpressing human TLR7; stimulated with gardiquimod 7.5 μM; SEAP read after 22 hour; dose range 0.05 nM-50 μM. In short, it runs like this: (§1)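 HEK-Blue cells with NF-κB/AP-1-driven SEAP pre-treated 30 min with compounds (0.05 nM-50 μM), then stimulated with gardiquimod 7.5 μM (TLR7), R848 15.9 μM (TLR8) or ODN2006 5 nM (TLR9). SEAP read after 22 h at 37° C; % inhibition relative to agonist+DMSO and reference-inhibitor wells.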

The next test addresses T2, human TLR8 (Homo sapiens, UniProt Q9NR97).
T2 construct: host or cells: HEK-Blue cells
T2 sequence (Q9NR97 27-1041): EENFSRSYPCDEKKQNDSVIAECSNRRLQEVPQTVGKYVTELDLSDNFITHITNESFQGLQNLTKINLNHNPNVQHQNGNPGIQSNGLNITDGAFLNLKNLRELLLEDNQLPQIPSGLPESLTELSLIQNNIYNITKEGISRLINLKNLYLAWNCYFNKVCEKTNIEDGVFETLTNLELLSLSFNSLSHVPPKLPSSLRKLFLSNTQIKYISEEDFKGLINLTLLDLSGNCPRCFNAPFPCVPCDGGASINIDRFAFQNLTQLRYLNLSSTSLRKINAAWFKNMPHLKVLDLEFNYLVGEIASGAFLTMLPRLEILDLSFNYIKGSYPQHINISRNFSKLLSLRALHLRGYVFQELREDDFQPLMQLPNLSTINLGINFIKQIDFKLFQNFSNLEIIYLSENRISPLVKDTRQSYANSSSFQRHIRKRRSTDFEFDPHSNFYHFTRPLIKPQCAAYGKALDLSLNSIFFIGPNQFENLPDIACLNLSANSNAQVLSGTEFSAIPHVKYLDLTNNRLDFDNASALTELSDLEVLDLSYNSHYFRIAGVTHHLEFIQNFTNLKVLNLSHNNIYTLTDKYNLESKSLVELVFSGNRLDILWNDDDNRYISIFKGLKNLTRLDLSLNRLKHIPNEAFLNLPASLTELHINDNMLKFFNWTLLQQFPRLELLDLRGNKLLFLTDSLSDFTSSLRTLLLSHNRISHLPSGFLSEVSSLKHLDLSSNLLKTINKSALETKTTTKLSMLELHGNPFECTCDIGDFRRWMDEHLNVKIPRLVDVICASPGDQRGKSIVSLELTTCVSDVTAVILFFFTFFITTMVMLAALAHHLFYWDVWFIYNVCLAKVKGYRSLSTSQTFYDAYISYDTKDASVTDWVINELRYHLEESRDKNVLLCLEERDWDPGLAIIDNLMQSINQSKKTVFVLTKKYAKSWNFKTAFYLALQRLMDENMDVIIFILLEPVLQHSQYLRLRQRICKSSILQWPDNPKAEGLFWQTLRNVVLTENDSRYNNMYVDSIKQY
The test is described as follows: TLR8 inhibition reporter assay (HEK-Blue cells, SEAP reporter). Conditions: HEK-Blue cells overexpressing human TLR8; stimulated with R848 15.9 μM; SEAP read after 22 hour; dose range 0.05 nM-50 μM. The essentials: as §1
On the technique in general: Reporter assays use an easily measured gene product as a stand-in for the process of interest.

In another test the target is T3, human TLR9 (Homo sapiens, UniProt Q9NR96).
T3 construct: host or cells: HEK-Blue cells
T3 sequence (Q9NR96 26-1032): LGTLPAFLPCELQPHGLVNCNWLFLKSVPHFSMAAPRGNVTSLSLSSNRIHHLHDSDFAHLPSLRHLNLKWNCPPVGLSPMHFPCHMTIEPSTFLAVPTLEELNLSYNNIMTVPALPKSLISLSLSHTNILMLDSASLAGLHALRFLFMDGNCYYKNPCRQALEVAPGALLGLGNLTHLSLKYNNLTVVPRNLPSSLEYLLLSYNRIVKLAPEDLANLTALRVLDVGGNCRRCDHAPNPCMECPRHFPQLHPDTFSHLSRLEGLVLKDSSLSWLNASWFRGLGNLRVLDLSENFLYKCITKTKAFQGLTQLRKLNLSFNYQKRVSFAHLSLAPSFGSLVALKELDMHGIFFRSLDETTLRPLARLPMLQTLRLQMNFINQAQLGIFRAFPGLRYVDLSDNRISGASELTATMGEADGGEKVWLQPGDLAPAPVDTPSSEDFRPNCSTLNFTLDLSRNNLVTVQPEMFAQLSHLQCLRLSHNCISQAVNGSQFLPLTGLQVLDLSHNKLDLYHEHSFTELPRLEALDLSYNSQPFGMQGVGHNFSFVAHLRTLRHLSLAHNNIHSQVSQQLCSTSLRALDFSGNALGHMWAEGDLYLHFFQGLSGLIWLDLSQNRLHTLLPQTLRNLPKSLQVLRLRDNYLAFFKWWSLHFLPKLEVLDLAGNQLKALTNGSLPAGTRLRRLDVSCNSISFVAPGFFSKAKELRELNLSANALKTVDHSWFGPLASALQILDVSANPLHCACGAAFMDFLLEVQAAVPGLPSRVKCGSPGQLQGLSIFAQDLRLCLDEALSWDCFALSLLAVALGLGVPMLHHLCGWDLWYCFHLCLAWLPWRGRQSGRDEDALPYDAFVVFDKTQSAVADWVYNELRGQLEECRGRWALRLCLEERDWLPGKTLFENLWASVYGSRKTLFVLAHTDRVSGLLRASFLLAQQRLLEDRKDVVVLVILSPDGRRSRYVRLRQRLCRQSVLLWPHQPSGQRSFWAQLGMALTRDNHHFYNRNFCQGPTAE
Kind of test: TLR9 inhibition reporter assay (HEK-Blue cells, SEAP reporter). To be noted: HEK-Blue cells overexpressing human TLR9; stimulated with ODN2006 5 nM; SEAP read after 22 hour; dose range 0.05 nM-50 μM. In short, it runs like this:
as §1

For orientation: IC50 means the concentration that inhibits the measured activity by half. On to `CC(C)N1CCN(c2ccc(-c3ccc4[nH]c(=O)c(-c5ccccc5C(F)(F)F)cc4c3)cc2)CC1` [Example 33, 6-{4-[4-(propan-2-yl)piperazin-1-yl]phenyl}-3-[2-(trifluoromethyl)phenyl]-1,2-dihydroquinolin-2-one], for which the 50% inhibitory concentration (IC50) at human TLR7 is 2230 nM; on human TLR8, 4700 nM; on human TLR9 it was 300 nM.
The matching figures for `CC(C)N1CCC(c2ccc(-c3ccc4[nH]c(=O)c(-c5ccc6nccnc6c5)cc4c3)cc2)CC1` [Example 93, 6-{4-[1-(propan-2-yl)piperidin-4-yl]phenyl}-3-(quinoxalin-6yl)-1,2-dihydroquinolin-2-one]: 1870 nM, 49800 nM and 651 nM.
Regarding `CN1CCC(c2ccc(-c3ccc4c(c3)cc(-c3ccc(S(C)(=O)=O)cc3)c(=O)n4C)cc2)CC1` [Example 78, 3-(4-methanesulfonylphenyl)-1-methyl-6-[4-(1-methylpiperidin-4-yl)phenyl]-1,2-dihydroquinolin-2-one], the IC50 against human TLR7 amounted to 2120 nM; at human TLR8, 2260 nM; against human TLR9, 286 nM.
The matching figures for `CCc1c(-c2ccc(S(C)(=O)=O)cc2)c(=O)n(C)c2ccc(-c3ccc(C4CCN(C(C)C)CC4)cc3)cc12` [Example 86, 4-ethyl-3-(4-methanesulfonylphenyl)-1-methyl-6-{4-[1-(propan-2-yl)piperidin-4-yl]phenyl}-1,2-dihydroquinolin-2-one]: 10400 nM, 1550 nM and 406 nM.
The matching figures for `Cn1c(=O)c(-c2ccccc2)cc2cc(-c3ccc(C4CCN(C5COC5)CC4)cc3)ccc21` [Example 100, 1-methyl-6-{4-[1-(oxetan-3-yl)piperidin-4-yl]phenyl}-3-phenyl-1,2-dihydroquinolin-2-one]: ≥ 50000 nM, 1900 nM and 2270 nM.
With `CNC(=O)Nc1ccc(-c2cc3cc(-c4ccc(N5CCN(C(C)C)CC5)cc4)ccc3[nH]c2=O)cc1` [Example 49, 3-methyl-1-[4-(2-oxo-6-{4-[4-(propan-2-yl)piperazin-1-yl]phenyl}-1,2-dihydroquinolin-3-yl)phenyl]urea], the IC50 is 5420 nM on human TLR7, ≥ 50000 nM against human TLR8 and 239 nM against human TLR9.
The corresponding values for `CC(C)N1CCN(c2ccc(-c3ccc4[nH]c(=O)c(-c5ccccc5NS(C)(=O)=O)cc4c3)cc2)CC1` [Example 29, N-[2-(2-oxo-6-{4-[4-(propan-2-yl)piperazin-1-yl]phenyl}-1,2-dihydroquinolin-3-yl)phenyl]methanesulfonamide] are 5860 nM, 1830 nM and 275 nM.
As to `CNC(=O)c1ccc(-c2cc3cc(-c4ccc(N5CCN(C(C)C)CC5)cc4)ccc3[nH]c2=O)cc1` [Example 54, N-methyl-4-(2-oxo-6-{4-[4-(propan-2-yl)piperazin-1-yl]phenyl}-1,2-dihydroquinolin-3-yl)benzamide], the half-maximal inhibitory concentration (IC50) against human TLR7 is 13000 nM; at human TLR8 it was ≥ 50000 nM; on human TLR9 it was 379 nM.
The corresponding values for `CC(C)N1CCN(c2ccc(-c3ccc4[nH]c(=O)c(-c5ccc(Cl)cc5)cc4c3)cc2)CC1` [Example 39, 3-(4-chlorophenyl)-6-{4-[4-(propan-2-yl)piperazin-1-yl]phenyl}-1,2-dihydroquinolin-2-one] are ≥ 50000 nM, ≥ 50000 nM and 387 nM.
The corresponding values for `CC(C)N1CCN(c2ccc(-c3ccc4[nH]c(=O)c(-c5ccc(C(=O)N6CCCC6(C)C)cc5)cc4c3)cc2)CC1` [Example 19, 3-[4-(2,2-dimethylpyrrolidine-1-carbonyl)phenyl]-6-{4-[4-(propan-2-yl)piperazin-1-yl]phenyl}-1,2-dihydroquinolin-2-one] are 2400 nM, ≥ 50000 nM and 200 nM.
The corresponding values for `CCn1c(=O)c(-c2ccc(S(C)(=O)=O)cc2)cc2cc(-c3ccc(C4CCN(C(C)C)CC4)cc3)ccc21` [Example 79, 1-ethyl-3-(4-methanesulfonylphenyl)-6-{4-[1-(propan-2-yl)piperidin-4-yl]phenyl}-1,2-dihydroquinolin-2-one] are 5330 nM, 25800 nM and 287 nM.
As to `CC(=O)Nc1ccc(-c2cc3cc(-c4ccc(N5CCN(C(C)C)CC5)cc4)ccc3n(C)c2=O)cc1` [Example 57, N-[4-(1-methyl-2-oxo-6-{4-[4-(propan-2-yl)piperazin-1-yl]phenyl}-1,2-dihydroquinolin-3-yl)phenyl]acetamide], the IC50 stood at 1220 nM against human TLR7, 83 nM on human TLR8 and 615 nM on human TLR9.
